Data taken from patent US11091488B2 (MISSION THERAPEUTICS LIMITED, priority 2015, dated 2021).

molecular target: USP30 (Homo sapiens (Human), UniProt Q70CQ3); experiment: USP30 biochemical IC50 assay; conditions: read-out: IC50 range; fluorescence polarisation, TAMRA labelled peptide linked to ubiquitin; 30 min pre-incubation, read after 2 hr
Sequence (Q70CQ3 57-517): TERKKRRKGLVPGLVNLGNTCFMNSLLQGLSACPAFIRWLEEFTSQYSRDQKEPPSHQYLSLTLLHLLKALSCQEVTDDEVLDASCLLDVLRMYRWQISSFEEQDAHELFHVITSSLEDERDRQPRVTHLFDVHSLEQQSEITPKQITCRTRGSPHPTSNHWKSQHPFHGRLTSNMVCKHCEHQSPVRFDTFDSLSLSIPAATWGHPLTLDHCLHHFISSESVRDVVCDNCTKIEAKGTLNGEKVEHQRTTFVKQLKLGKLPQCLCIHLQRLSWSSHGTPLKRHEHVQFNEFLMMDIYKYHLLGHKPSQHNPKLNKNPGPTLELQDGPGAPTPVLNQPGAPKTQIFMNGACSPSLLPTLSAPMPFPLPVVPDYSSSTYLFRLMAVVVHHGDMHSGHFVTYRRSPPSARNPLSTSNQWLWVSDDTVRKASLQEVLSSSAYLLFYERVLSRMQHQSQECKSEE
Protocol: USP30 Biochemical IC50 Assay
Dilution plates were prepared at 21 times the final concentration (2100 μM for a final concentration of 100 μM) in 50% DMSO in a 96-well polypropylene V-bottom plate (Greiner #651201). A typical 8-point dilution series to be 100, 30, 10, 3, 1, 0.3, 0.1, 0.03 μM final. Reactions were performed in duplicate in black 384 well plates (small volume, Greiner 784076) in a final reaction volume of 21 μl. Either 1 μl of 50% DMSO or diluted compound was added to the plate. USP30 was diluted in reaction buffer (40 mM Tris, pH 7.5, 0.005% Tween 20, 0.5 mg/ml BSA, 5 mM—beta-mercaptoethanol) to the equivalent of 0.05 μl/well and 10 μl of diluted USP30 was added to the compound. Enzyme and compound were incubated for 30 min at room temp. Reactions were initiated by the addition of 50 nM of TAMRA labelled peptide linked to ubiquitin via an iso-peptide bond as fluorescence polarisation substrate. Reactions were read immediately after addition of substrate and following a 2 hr incubation at room temperature. Readings were performed on a Pherastar Plus (BMG Labtech). λ Excitation 540 nm; λ Emission 590 nm.

| IC50 | SMILES |
| --- | --- |
| 100 to 1000 nM | N#CN1CC[C@@H](N2c3ccccc3N(Cc3ccccc3)S2(=O)=O)C1 [Example 67, (R)-3-(3-benzyl-2,2-dioxidobenzo[c][1,2,5]thiadiazol-1(3H)-yl)pyrrolidine-1-carbonitrile] |
| 100 to 1000 nM | N#CN1CCC(NS(=O)(=O)N2CCC(c3ccccc3)CC2)C1 (centres unmarked) [Example 59, N-(1-cyanopyrrolidin-3-yl)-4-phenylpiperidine-1-sulfonamide] |
| 1000 to 10000 nM | N#CN1CC[C@@H](N2Cc3cccc(N4CCOCC4)c3NS2(=O)=O)C1 [Example 77, (R)-3-(8-morpholino-2,2-dioxido-1,4-dihydro-3H-benzo[c][1,2,6]thiadiazin-3-yl)pyrrolidine-1-carbonitrile] |
| 100 to 1000 nM | N#CN1CC[C@@H](N2CCN(c3ccc4c(c3)N(CCO)C(=O)CO4)S2(=O)=O)C1 [Example 6, (R)-3-(5-(4-(2-hydroxyethyl)-3-oxo-3,4-dihydro-2H-benzo[b][1,4]oxazin-6-yl)-1,1-dioxido-1,2,5-thiadiazolidin-2-yl)pyrrolidine-1-carbonitrile] |
| < 100 nM | N#CN1CC[C@@H](N2CCN(c3cccc(N4CCOCC4)c3)S2(=O)=O)C1 [Example 24, (R)-3-(5-(3-morpholinophenyl)-1,1-dioxido-1,2,5-thiadiazolidin-2-yl)pyrrolidine-1-carbonitrile] |
| < 100 nM | N#CN1CC[C@@H](N2CCN(c3ccc(-c4ccncc4)cc3)S2(=O)=O)C1 [Example 18, (R)-3-(1,1-dioxido-5-(4-(pyridin-4-yl)phenyl)-1,2,5-thiadiazolidin-2-yl)pyrrolidine-1-carbonitrile] |
| 1000 to 10000 nM | N#CN1CC[C@@H](NS(=O)(=O)N2CCc3ccccc3C2)C1 [Example 62, (R)—N-(1-cyanopyrrolidin-3-yl)-3,4-dihydroisoquinoline-2(1H)-sulfonamide] |
| 100 to 1000 nM | N#CN1CC[C@@H](N2CCN(c3ccc4nc(C(F)(F)F)[nH]c4c3)S2(=O)=O)C1 [Example 44, (R)-3-(1,1-dioxido-5-(2-(trifluoromethyl)-1H-benzo[d]imidazol-5-yl)-1,2,5-thiadiazolidin-2-yl)pyrrolidine-1-carbonitrile] |
| < 100 nM | CN1C(=O)COc2cc(N3CCN([C@@H]4CCN(C#N)C4)S3(=O)=O)ccc21 [Example 2, (R)-3-(5-(4-methyl-3-oxo-3,4-dihydro-2H-benzo[b][1,4]oxazin-7-yl)-1,1-dioxido-1,2,5-thiadiazolidin-2-yl)pyrrolidine-1-carbonitrile] |
| 100 to 1000 nM | Cn1cc(-c2ccc3c(c2)NS(=O)(=O)N([C@@H]2CCN(C#N)C2)C3)cn1 [Example 71, (R)-3-(7-(1-methyl-1H-pyrazol-4-yl)-2,2-dioxido-1,4-dihydro-3H-benzo[c][1,2,6]thiadiazin-3-yl)pyrrolidine-1-carbonitrile] |

| SMILES | IC50 |
| --- | --- |
| Cn1cc(-c2cccc(N3CCN([C@@H]4CCN(C#N)C4)S3(=O)=O)c2)cn1 [Example 20, (R)-3-(5-(3-(1-methyl-1H-pyrazol-4-yl)phenyl)-1,1-dioxido-1,2,5-thiadiazolidin-2-yl)pyrrolidine-1-corbonitrile] | < 100 nM |
| N#CN1CC[C@H](N2CCN(c3cccc(-c4ccccc4)c3)S2(=O)=O)C1 [Example 35, (S)-3-(5-([1,1′-biphenyl]-3-yl)-l,1-dioxido-1,2,5-thiadiozolidin-2-yl)pyrrolidine-1-carbonitrile] | < 100 nM |
| N#CN1CC[C@@H](N2CCCN(c3cc(-c4ccccc4)n[nH]3)S2(=O)=O)C1 [Example 29, (R)-3-(1,1-dioxido-6-(3-phenyl-1H-pyrazol-5-yl)-l,2,6-thiadiazinan-2-yl)pyrrolidine-1-carbonitrile] | 100 to 1000 nM |
| COc1ccc(-c2ccccc2)cc1N1CCN([C@@H]2CCN(C#N)C2)S1(=O)=O [Example 15, (R)-3-(5-(4-methoxy-[1,1′-biphenyl]-3-yl)-1,1-dioxido-1,2,5-thiadiazolidin-2-yl)pyrrolidine-1-corbonitrile] | < 100 nM |
